This is an account of results in PMC12677607, “Identification of a Pair of Linear or Cyclic Naturally Inspired Bifunctional Lipopeptide Antibiotics That Overcome Antimicrobial Resistance” (Advanced Science, 2025).

For data set [1], the system named is B. subtilis ATCC 23857. Nature of the data set: MIC assay (broth micro-dilution). It is filed as cell-based. The settings on record: Table S11; LB broth, 37 °C, 16 h, n = 2. In short, it runs like this: (§1)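 MIC = lowest peptide concentration with no visible growth; LB broth microdilution, n = 2. Inoculum: overnight culture diluted 5000× (S. aureus 10000×). Peptides serially diluted 2-fold, 64–0.125 µg mL^−1 in the broth added to cells.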

Data set [2] deals with Escherichia coli DH5α. Nature of the data set: MIC assay (broth micro-dilution). It is filed as cell-based. The settings on record: Table S11; LB broth, 37 °C, 16 h, n = 2. In short, it runs like this:
as §1
For orientation: Broth dilution looks for growth in wells or tubes with falling amounts of substance.

In data set [3] the test system is Candida albicans ATCC 10231. Nature of the data set: MIC assay (YPD broth). The following applies: Table S11; YPD broth, 30 °C, 16 h, n = 2. It counts as cell-based. On the procedure:
All MIC assays were performed two independent times (n = 2) in 96‐well plates using a broth micro‐dilution method. The lowest concentration of that inhibited visible microbial growth was recorded as the MIC value.
For fungal strains, overnight cultures were diluted 2000‐fold in YPD broth. 100 µL of diluted cells was mixed with 100 µL of YPD broth containing each peptide ranging from […] 64 to 0.125 µg mL^−1 at 2‐fold serial dilutions.

The subject of data set [4] is S. aureus USA300. Nature of the data set: Time-dependent killing assay. It counts as cell-based. The following applies: 4× MIC, time-dependent killing curve, n = 3. On the procedure: Overnight cultures of S. aureus USA300 were diluted 1:10000 in LB broth and incubated for 2 h at 37 °C and 200 rpm. […] After 15, 30, 60, 120, 180, 240, 300, and 360 min, 100 µL of cell suspension were collected, serially diluted, and plated on LB agar plates. After an incubation of 16 h at 37 °C, bacterial colonies were counted. Experiments were performed three independent times (n = 3).

The subject of data set [5] is E. coli DH5α. Nature of the data set: Bactericidal effects / cell lysis in E. coli. It is filed as cell-based. The following applies: after 12 h at 16× MIC, Figure S123a.
In data set [6] the test system is S. aureus USA300. Nature of the data set: UDP-MurNAc-pentapeptide accumulation assay. The following applies: 8 × MIC, 1 hr, LC-MS. It counts as cell-based. On the procedure: To determine the effects of aquicidine L or aquicidine C4 on bacterial cell wall biosynthesis of S. aureus USA300, the accumulation of the precursor UDP‐MurNAc‐pentapeptide was investigated in antibiotic‐treated cell cultures. 50 µL of overnight cultures were transferred to 5 mL of fresh LB broth and cultured to 0.5 of OD600 at 37 °C and 200 rpm. The cultures were treated with 130 µg/mL of chloramphenicol for 15 min at 37 °C and 200 rpm, and 128 µg/mL of aquicidine L or 32 µg/mL aquicidine C4 was added. 8 µg/mL of vancomycin and DMSO were used as positive and negative controls, respectively. After an incubation of 1 hr, the cell pellet from 0.5 mL of the cell cultures was resuspended in 30 µL of ddH2O and then boiled for 15 min. Finally, the supernatant was collected and then detected using an Agilent 1290 Series High‐Performance Liquid Chromatography (HPLC) coupled to a 6546 Series QTOF mass spectrometer equipped with an XBridge C18 column (4.6 × 150 mm, 5 µm). Solvent A = H2O (0.1% v/v formic acid) and solvent B = CH3CN (0.1% v/v formic acid) were used for HPLC analysis with 0.4 mL min^−1 of flow rate at 25 °C. Gradient conditions were as follows: t = 0‐1 min, 3% solvent B; t = 2‐7 min, 3‐95% solvent B; t = 7‐8 min, 95% solvent B; t = 8–9 min, 95‐3% solvent B; t = 9–10 min, 3% solvent B.

For data set [7], the system named is S. aureus USA300. Nature of the data set: Membrane depolarization assay (DiSC3(5)). It counts as cell-based. The settings on record: S. aureus USA300 in PBS, 4 × MIC, n = 2. The procedure: Bacterial membrane depolarization assay was performed in 384‐well black microtiter plates. Overnight cell cultures of S. aureus USA300 were collected and resuspended in PBS buffer to an OD600 of 0.5. Then, 100 µL of the diluted cell suspension and 50 µL of 20 µM DiSC3(5) dye were added to 300 µL of PBS buffer, which was incubated for 15 min at room temperature in the dark. 50 µL of 2 M KCl was then added and incubated for another 15 min. Fluorescence intensity was determined continually at 2 s intervals (Ex/Em 643/675 nm) using a Tecan spark multimode microplate reader. When the signal stabilized, the appropriate amount of aquicidine L or aquicidine C4 (6.4 mg mL^−1 in DMSO, 4 × MIC) was added. DMSO and daptomycin were used as negative and positive controls, respectively. Data were shown as the relative intensity with respect to the average fluorescence signal prior to the addition of each compound. All assays were performed two independent times (n = 2), and a representative fluorescence recording was presented.

In data set [8] the test system is S. aureus USA300. Nature of the data set: Membrane lysis assay (SYTOX Green). It is filed as cell-based. The following applies: S. aureus USA300 in PBS, 8 × MIC, n = 2. The procedure:
Bacterial membrane lysis assay was performed in 384‐well black microtiter plates. Overnight cultures of S. aureus USA300 were collected and resuspended in PBS buffer to an OD600 of 0.5. 1 µL of 5 mM SYTOX Green dye was added to 2.5 mL of the diluted cell suspension, which was incubated for 10 min at room temperature in the dark. Fluorescence intensity was detected continually at 2 s intervals (Ex/Em 488/523 nm) using a Tecan spark multimode microplate reader. When the fluorescence signal stabilized, the appropriate amount of each compound (6.4 mg mL^−1 in DMSO, 8 × MIC) was added. DMSO and daptomycin (with 15 mM CaCl2) were used as negative and positive controls, respectively. Data were shown as the relative intensity with respect to the average fluorescence signal prior to the addition of each compound. All membrane lysis assays were performed two independent times (n = 2), and a representative fluorescence recording was presented.

Data set [9] can be described thus: Acute toxicity assay. It is filed as in vivo, mouse. The following applies: single dose 250 mg kg^−1 intraperitoneal, three mice, five days. The procedure:
For acute toxicity assessment, three mice were given a single dose of aquicidine L or aquicidine C4 at 250 mg kg^−1 via intraperitoneal injection. Mice were observed twice daily for mortality and morbidity as well as for possible signs of acute toxicity. The experiment was totally monitored for five days.

Values after ≈ are worked out from the molar mass of the structure shown. Bridge positions count the residues as written; N and C are the ends. Square brackets hold non-standard residues; d marks the D form. Peptide text beside a SMILES is read from it. * marks the point of attachment. Myristoyl = CCCCCCCCCCCCCC(=O)*; Orn = NCCC[C@H](N)C(=O)O; Dab = NCC[C@H](N)C(=O)O; Dap = NC[C@H](N)C(=O)O

Consider `CCCCCCCCCCCCCC(=O)N[C@@H](CN)C(=O)N[C@H](C(=O)N[C@@H](CC(C)C)C(=O)N[C@H]1COC(=O)[C@H](Cc2ccccc2)NC(=O)[C@H](CC(N)=O)NC(=O)[C@H](CCCN)NC(=O)[C@H]([C@@H](C)CC)NC(=O)[C@H](Cc2ccccc2)NC(=O)[C@H](CN)NC(=O)[C@H](CCN)NC1=O)[C@@H](C)O` [synAQU5-C4] (Myristoyl-[Dap]TLS[Dab][Dap]FI[Orn]NF; ester 4-C), for which, in data set [1], the “MIC Bacllussubtilis ATCC 23857” value worked out at 2 µg/mL (≈ 1.41 µM). In [2], the “MIC Escherichia coli DH5α” value is 8 µg/mL (≈ 5.63 µM). Further, the “MIC Candida albicans ATCC 10231” value in data set [3] was greater than 64 µg/mL. Also, in data set [4], the “bactericidal activity, number of viable cells” value is “decreased the number of viable cells by two orders of magnitude after 5 h”. Besides, the “cell lysis in E. coli” value in data set [5] is “slightly led to cell lysis”. Besides, the “accumulation of UDP-MurNAc-pentapeptide” value in [6] is on record as “did not show an obvious accumulation”. In addition, the “DiSC3(5) fluorescence (membrane depolarization)” value in data set [7] is reported as “significant increase”. Further, the “SYTOX fluorescence (cell lysis)” value in data set [8] was “significant increase”. Further, in data set [9], the “acute toxicity in mouse” value was “no obvious acute toxicities”.

With `CCCCCCCCCCCCCC(=O)N[C@@H](CN)C(=O)N[C@H](C(=O)N[C@@H](CC(C)C)C(=O)N[C@@H](CO)C(=O)N[C@@H](CCN)C(=O)N[C@@H](CN)C(=O)N[C@@H](Cc1ccccc1)C(=O)N[C@H](C(=O)N[C@@H](CCCN)C(=O)N[C@@H](CC(N)=O)C(=O)N[C@@H](Cc1ccccc1)C(=O)O)[C@@H](C)CC)[C@@H](C)O` [synAQU5-L] (Myristoyl-[Dap]TLS[Dab][Dap]FI[Orn]NF-OH), the “MIC Bacllussubtilis ATCC 23857” value in [1] turned out to be 8 µg/mL (≈ 5.56 µM). For the same compound, the “MIC Escherichia coli DH5α” value in [2] stood at 2 µg/mL (≈ 1.39 µM). In addition, the “MIC Candida albicans ATCC 10231” value in data set [3] is greater than 64 µg/mL. Moreover, the “bactericidal activity, number of viable cells” value in data set [4] is reported as “only inhibited the growth of S. aureus USA300 within 2 h”. Moreover, the “cell lysis in E. coli” value in data set [5] was “significantly led to cell lysis”. For the same compound, the “accumulation of UDP-MurNAc-pentapeptide” value in data set [6] was “did not show an obvious accumulation”. For the same compound, the “DiSC3(5) fluorescence (membrane depolarization)” value in [7] is “not aquicidine L caused a significant increase”. Also, in data set [8], the “SYTOX fluorescence (cell lysis)” value is recorded as “not aquicidine L caused a significant increase”. Moreover, the “acute toxicity in mouse” value in data set [9] is recorded as “no obvious acute toxicities”.
